According to ChEMBL document CHEMBL1687771 (Antimicrob Agents Chemother, 2010):
≈ marks a conversion by molar mass, not a printed value. Calls of active or inactive are those of the source. The rule behind the calls is not given here.

Tests used:
Bacillus anthracis [1] = assay: Antimicrobial activity against Bacillus anthracis Ames infected in BALB/c mouse anthrax spore inhalation infection model assessed as decrease in tissue bacterial burden at 50 mg/kg, sc bid for 21 days administered 24 hrs post bacterial challenge measured 43 days post bacterial challenge; type: functional, organism-based; set-up: dose 50 mg/kg
Bacillus anthracis [2] = assay: Antimicrobial activity against Bacillus anthracis Ames infected in BALB/c mouse anthrax spore inhalation infection model assessed as decrease in tissue bacterial burden at 50 mg/kg, sc bid for 14 days administered 24 hrs post bacterial challenge measured 43 days post bacterial challenge; type: functional, organism-based; set-up: dose 50 mg/kg
Mus musculus [3] = assay: AUC at 24 hrs in Bacillus anthracis Ames infected in BALB/c mouse anthrax spore inhalation infection model at 50 mg/kg, sc bid for 14 days administered 24 hrs post bacterial challenge; type: functional, organism-based; set-up: dose 50 mg/kg
Mus musculus [4] = assay: AUC in Bacillus anthracis Ames infected in BALB/c mouse anthrax spore inhalation infection model at 50 mg/kg, sc bid for 14 days administered 24 hrs post bacterial challenge; type: functional, organism-based; set-up: dose 50 mg/kg
Bacillus anthracis [5] = assay: Antimicrobial activity against Bacillus anthracis Ames by CLSI broth microdilution method; type: functional

## CCCCCCCCCC(=O)N[C@@H](Cc1c[nH]c2ccccc12)C(=O)N[C@H](CC(N)=O)C(=O)N[C@@H](CC(=O)O)C(=O)N[C@@H]1C(=O)NCC(=O)N[C@@H](CCCN)C(=O)N[C@@H](CC(=O)O)C(=O)N[C@H](C)C(=O)N[C@@H](CC(=O)O)C(=O)NCC(=O)N[C@H](CO)C(=O)N[C@@H]([C@H](C)CC(=O)O)C(=O)N[C@@H](CC(=O)c2ccccc2N)C(=O)O[C@@H]1C
Bacillus anthracis [1]
  Activity: Active
Bacillus anthracis [2]
  Activity: Active
Mus musculus [3]
  AUC: 750000 ng·h/mL
Mus musculus [4]
  AUC: > 375000 ng·h/mL
Bacillus anthracis [5]
  MIC50: 2 µg/mL (≈ 1.23 µM)
  MIC90: 4 µg/mL (≈ 2.47 µM)
